Where two headings read alike, the source gives them in different places.
Legend:
[1] = test system: LNCaP cells; experiment: Flow cytometry analysis of cell cycle; assay type: cell-based, human; conditions: 25 μM, 48 h; untreated cells 20
Description: (§1) Cells were then rinsed in PBS, pelleted at 400 g for 5 min and maintained on ice for 20 min before resuspension in a […] propidium iodide (Sigma) solution. Cells were kept overnight at 4° C. and the percentages of cells in G1, S and G2-M phases of the cell cycle were measured with a Coulter Epics XL™ flow cytometer (Becton Dickinson) using 488-nm laser excitation. For apoptosis experiment, MEFs were treated with the tested compound at 25 μM for 24 h, then rinced in PBS, pelleted at 400 g for 5 min and stained with annexinV-FITC (Roche Diagnostics, Meylan, France) for 15 min at 4° C. The percentage of annexin positive cells was immediately analysed using 488-nm laser excitation.

[2] = test system: C4-2 cells; experiment: Flow cytometry analysis of cell cycle; assay type: cell-based, human; conditions: 25 μM, 48 h; untreated cells 22
Description: as §1

[3] = test system: C4-2 cells; experiment: Proliferation by BrDU incorporation; conditions: 25 μM, 48 h of treatment
Description: (§2) LNCaP and C4-2 cells grown on coverslips were incubated for 4 hours with BrdU (100 μM final) at 24 hours and 48 hours following SCD-1 knock-down. Cells were then fixed and permeabilized with cold methanol for 10 min at −20° C. After 3 washes with PBS, DNA was denaturated with 4NHCL for 10 min at RT, and cells were incubated with blocking buffer (PBS-1% BSA). BrDU was then detected with anti-BrDU monoclonal antibody 1:50 (Dako, Carpinteria, Calif.) for 1 hour at 37° C. After 3 washes with PBS, cells were incubated with an FITC-conjugated anti-mouse secondary antibody 1:150 (Jackson Immunoresearch) for 30 min at 37° C., and slides were mounted in mowiol.

[4] = test system: C4-2 cells; experiment: MTT assay (cell viability); conditions: 48 h
Description: (§3) After 48 h, medium was removed and 250 μl of a 5 mg/ml MTT (Sigma, St Louis, Mo., USA) solution in PBS was added to each well. After 4 h incubation at 37° C., the MTT solution was removed, 200 μl of DMSO (Sigma) was added and cells were incubated for 5 min. Two hundred microliters of each samples was distributed in 96-well plates for an optical density reading at 540 nm.

[5] = test system: LNCaP cells; experiment: Proliferation by BrDU incorporation; assay type: cell-based, human; conditions: 25 μM, 48 h of treatment
Description: as §2

[6] = test system: C4-2 cells
Description: as §3

SMILES: COc1ccc(Br)c(C(=O)N2CCN(S(=O)(=O)c3ccccc3)CC2)c1 [Example 1, 1N-[(2-bromo-5-methoxybenzoyl)]-4N-[(phenyl)sulfonyl]piperazine]
- % LNCaP cells in phase S at 25 μM [1]: 18%
- % C4-2 cells in phase S at 25 μM [2]: 20.1%
- % Inhibition of proliferation at 25 μM (BrDU) on C4-2 [3]: 22.7 ± 11.2%
- Viable C4-2 cells at 25 μM (% of control) [4]: 45 % of control

SMILES: COc1ccc(Br)c(C(=O)N2CCN(S(=O)(=O)c3ccoc3)CC2)c1 [Example 24, 1N-[(2-bromo-5-methoxybenzoyl)]-4N-[(3-furan)sulfonyl]piperazine]
- % Inhibition of proliferation at 25 μM (BrDU) on C4-2 [3]: 28.4 ± 9.8%

SMILES: COc1ccc(Br)c(C(=O)N2CCN(S(=O)(=O)c3cccc(F)c3)CC2)c1 [Example 15, 1N-[(2-bromo-5-methoxybenzoyl)]-4N-[(3-fluorophenyl)sulfonyl]piperazine]
- % Inhibition of proliferation at 25 μM (BrDU) on LNCaP [5]: 0%
- % Inhibition of proliferation at 25 μM (BrDU) on C4-2 [3]: 35.7 ± 6%
- Viable C4-2 cells at 25 μM (% of control) [6]: 83 % of control

SMILES: CCCc1ccc(S(=O)(=O)N2CCN(C(=O)c3cc(OC)ccc3Br)CC2)cc1 [Example 5, 1N-[(2-bromo-5-methoxybenzoyl)]-4N-[(4-propylphenyl)sulfonyl]piperazine]
- % LNCaP cells in phase S at 25 μM [1]: 3%
- % C4-2 cells in phase S at 25 μM [2]: 10.7%
- % Inhibition of proliferation at 25 μM (BrDU) on C4-2 [3]: 26.8 ± 20.2%

SMILES: COc1ccc(Br)c(C(=O)N2CCN(S(=O)(=O)c3cccc(C(F)(F)F)c3)CC2)c1 [Example 7, 1N-[(2-bromo-5-methoxybenzoyl)]-4N-[(3-trifluoromethylphenyl)sulfonyl]piperazine]
- % Inhibition of proliferation at 25 μM (BrDU) on LNCaP [5]: 16.7%
- % Inhibition of proliferation at 25 μM (BrDU) on C4-2 [3]: 31.6 ± 7.61%
- Viable C4-2 cells at 25 μM (% of control) [6]: 44 % of control

SMILES: COc1ccc(Br)c(C(=O)N2CCN(S(=O)(=O)c3ccc(Cl)cc3)CC2)c1 [Example 18, 1N-[(2-bromo-5-methoxybenzoyl)]-4N-[(4-chlorophenyl)sulfonyl]piperazine]
- % Inhibition of proliferation at 25 μM (BrDU) on LNCaP [5]: 49.7%
- % Inhibition of proliferation at 25 μM (BrDU) on C4-2 [3]: 38.1 ± 7.1%
- Viable C4-2 cells at 25 μM (% of control) [4]: 59 % of control

SMILES: O=C(c1cscn1)N1CCN(S(=O)(=O)c2ccc(F)cc2F)CC1 [Example 37, 1N-[4-thiazolecarbonyl]-4-N-[(2,4-difluorophenyl)sulfonyl]piperazine]
- % Inhibition of proliferation at 25 μM (BrDU) on C4-2 [3]: 37 ± 7.8%

SMILES: COc1ccccc1C(=O)N1CCN(S(=O)(=O)c2ccc(F)cc2F)CC1 [Example 32, 1N-[(2-methoxybenzoyl)]-4-N-[(2,4-difluorophenyl)sulfonyl]piperazine]
- % Inhibition of proliferation at 25 μM (BrDU) on C4-2 [3]: 0%

SMILES: COc1ccc(Br)c(C(=O)N2CCN(S(=O)(=O)c3ccc(F)cc3F)CC2)c1 [Example 12, 1N-[(2-bromo-5-methoxybenzoyl)]-4N-[(2, 4 difluorophenyl)sulfonyl]piperazine]
- % Inhibition of proliferation at 25 μM (BrDU) on LNCaP [5]: 60.6%
- % Inhibition of proliferation at 25 μM (BrDU) on C4-2 [3]: 55.2 ± 0.5%
- Viable C4-2 cells at 25 μM (% of control) [6]: 70 % of control

SMILES: COc1ccc(Br)c(C(=O)N2CCN(S(=O)(=O)c3ccc(Br)cc3)CC2)c1 [Example 17, 1N-[(2-bromo-5-methoxybenzoyl)]-4N-[(4-bromophenyl)sulfonyl]piperazine]
- % Inhibition of proliferation at 25 μM (BrDU) on C4-2 [3]: 67.6 ± 8.2%

SMILES: COc1ccc(C(=O)N2CCN(S(=O)(=O)c3ccc(F)cc3F)CC2)cc1Br [Example 26, 1N-[(3-bromo-4-methoxybenzoyl)]-4-N-[(2,4-difluorophenyl)sulfonyl]piperazine]
- % Inhibition of proliferation at 25 μM (BrDU) on C4-2 [3]: 68.2 ± 18.2%

SMILES: COc1ccc(Br)c(C(=O)N2CCN(S(=O)(=O)c3ccccc3C(F)(F)F)CC2)c1 [Example 8, 1N-[(2-bromo-5-methoxybenzoyl)]-4N-[(2-trifluoromethylphenyl)sulfonyl]piperazine]
- % Inhibition of proliferation at 25 μM (BrDU) on LNCaP [5]: 40.1%
- % Inhibition of proliferation at 25 μM (BrDU) on C4-2 [3]: 84.4 ± 8.5%
- Viable C4-2 cells at 25 μM (% of control) [6]: 73 % of control

SMILES: COc1ccc(Br)c(C(=O)N2CCN(S(=O)(=O)c3ccc(C(C)=O)cc3)CC2)c1 [Example 4, 1N-[(2-bromo-5-methoxybenzoyl)]-4N-[(4-acetylphenyl)sulfonyl]piperazine]
- % LNCaP cells in phase S at 25 μM [1]: 18%
- % C4-2 cells in phase S at 25 μM [2]: 19.7%
- % Inhibition of proliferation at 25 μM (BrDU) on C4-2 [3]: 36 ± 5.4%

SMILES: COc1ccc(Br)cc1C(=O)N1CCN(S(=O)(=O)c2ccc(F)cc2F)CC1 [Example 27, 1N-[(2-methoxy-5-bromobenzoyl)]-4-N-[(2,4-difluorophenyl)sulfonyl]piperazine]
- % Inhibition of proliferation at 25 μM (BrDU) on C4-2 [3]: 26.2 ± 6.2%

SMILES: O=C(c1ccsc1)N1CCN(S(=O)(=O)c2ccc(F)cc2F)CC1 [Example 36, 1N-[3-thiophenecarbonyl]-4-N-[(2,4-difluorophenyl)sulfonyl]piperazine]
- % Inhibition of proliferation at 25 μM (BrDU) on C4-2 [3]: 40 ± 7.6%

SMILES: COc1ccc(Br)c(C(=O)N2CCN(S(=O)(=O)c3ccc(C(F)(F)F)cc3)CC2)c1 [Example 3, 1N-[(2-bromo-5-methoxybenzoyl)]-4N-[(4-trifluoromethylphenyl)sulfonyl]piperazine]
- % LNCaP cells in phase S at 25 μM [1]: 10%
- % C4-2 cells in phase S at 25 μM [2]: 2.8%
- % Inhibition of proliferation at 25 μM (BrDU) on C4-2 [3]: 65.8 ± 6.4%

SMILES: COc1ccc(Br)c(C(=O)N2CCN(S(=O)(=O)c3ccccc3F)CC2)c1 [Example 13, 1N-[(2-bromo-5-methoxybenzoyl)]-4N-[(2-fluorophenyl)sulfonyl]piperazine]
- % Inhibition of proliferation at 25 μM (BrDU) on LNCaP [5]: 27.1%
- % Inhibition of proliferation at 25 μM (BrDU) on C4-2 [3]: 55.6 ± 3.1%
- Viable C4-2 cells at 25 μM (% of control) [6]: 56 % of control

SMILES: COc1ccc(S(=O)(=O)N2CCN(C(=O)c3cc(OC)ccc3Br)CC2)cc1 [Example 19, 1N-[(2-bromo-5-methoxybenzoyl)]-4N-[(4-methoxyphenyl)sulfonyl]piperazine]
- % Inhibition of proliferation at 25 μM (BrDU) on C4-2 [3]: 22.4 ± 7.7%

SMILES: COc1ccc(Br)c(C(=O)N2CCN(S(=O)(=O)c3ccsc3)CC2)c1 [Example 22, 1N-[(2-bromo-5-methoxybenzoyl)]-4N-[(3-thiophene)sulfonyl]piperazine]
- % Inhibition of proliferation at 25 μM (BrDU) on C4-2 [3]: 28 ± 2.6%

SMILES: COc1ccc(Br)c(C(=O)N2CCN(S(=O)(=O)c3c(F)cccc3F)CC2)c1 [Example 14, 1N-[(2-bromo-5-methoxybenzoyl)]-4N-[(2,6-difluorophenyl)sulfonyl]piperazine]
- % Inhibition of proliferation at 25 μM (BrDU) on C4-2 [3]: 0%

SMILES: COc1ccc(Br)c(C(=O)N2CCN(S(=O)(=O)c3ccc(C(C)C)cc3)CC2)c1 [Example 16, 1N-[(2-bromo-5-methoxybenzoyl)]-4N-[(4-isopropylphenyl)sulfonyl]piperazine]
- % Inhibition of proliferation at 25 μM (BrDU) on C4-2 [3]: 75.4 ± 10.8%

SMILES: COc1ccc(Br)c(C(=O)N2CCN(S(=O)(=O)c3ccc(C)cc3)CC2)c1 [Example 10, 1N-[(2-bromo-5-methoxybenzoyl)]-4N-[(4-methylphenyl)sulfonyl]piperazine]
- % Inhibition of proliferation at 25 μM (BrDU) on LNCaP [5]: 0%
- % Inhibition of proliferation at 25 μM (BrDU) on C4-2 [3]: 0%
- Viable C4-2 cells at 25 μM (% of control) [4]: 59 % of control

SMILES: COc1cccc(C(=O)N2CCN(S(=O)(=O)c3ccc(F)cc3F)CC2)c1 [Example 31, 1N-[(3-methoxybenzoyl)]-4-N-[(2,4-difluorophenyl)sulfonyl]piperazine]
- % Inhibition of proliferation at 25 μM (BrDU) on C4-2 [3]: 25.3 ± 6.1%

SMILES: COc1ccc(Br)c(C(=O)N2CCN(S(=O)(=O)c3ccc(-c4ccccc4)cc3)CC2)c1 [Example 9, 1N-[(2-bromo-5-methoxybenzoyl)]-4N-[(4-biphenyl)sulfonyl]piperazine]
- % Inhibition of proliferation at 25 μM (BrDU) on LNCaP [5]: 48.3%
- % Inhibition of proliferation at 25 μM (BrDU) on C4-2 [3]: 60.5 ± 5.7%
- Viable C4-2 cells at 25 μM (% of control) [4]: 90 % of control

SMILES: COc1c(Br)cccc1C(=O)N1CCN(S(=O)(=O)c2ccc(F)cc2F)CC1 [Example 28, 1N-[(2-methoxy-3-bromobenzoyl)]-4-N-[(2,4-difluorophenyl)sulfonyl]piperazine]
- % Inhibition of proliferation at 25 μM (BrDU) on C4-2 [3]: 55.4 ± 14%

SMILES: COc1ccc(Br)c(C(=O)N2CCN(S(=O)(=O)c3cn(C)cn3)CC2)c1 [Example 25, 1N-[(2-bromo-5-methoxybenzoyl)]-4N-[(1-methyl-1H-imidazole)sulfonyl]piperazine]
- % Inhibition of proliferation at 25 μM (BrDU) on C4-2 [3]: 0%

SMILES: COc1ccc(Br)c(C(=O)N2CCN(S(=O)(=O)Cc3ccccc3)CC2)c1 [Example 20, 1N-[(2-bromo-5-methoxybenzoyl)]-4N-[(phenylmethane)sulfonyl]piperazine]
- % Inhibition of proliferation at 25 μM (BrDU) on LNCaP [5]: 16.8%
- % Inhibition of proliferation at 25 μM (BrDU) on C4-2 [3]: 46.3 ± 11.7%
- Viable C4-2 cells at 25 μM (% of control) [4]: 37 % of control

SMILES: COc1ccc(Br)c(C(=O)N2CCN(S(=O)(=O)c3ccco3)CC2)c1 [Example 23, 1N-[(2-bromo-5-methoxybenzoyl)]-4N-[(2-furan)sulfonyl]piperazine]
- % Inhibition of proliferation at 25 μM (BrDU) on C4-2 [3]: 48 ± 14%

SMILES: COc1ccc(Br)c(C(=O)N2CCN(S(=O)(=O)c3ccc([N+](=O)[O-])cc3)CC2)c1 [Example 6, 1N-[(2-bromo-5-methoxybenzoyl)]-4N-[(4-nitrophenyl)sulfonyl]piperazine]
- % LNCaP cells in phase S at 25 μM [1]: 15%
- % C4-2 cells in phase S at 25 μM [2]: 19.8%
- % Inhibition of proliferation at 25 μM (BrDU) on C4-2 [3]: 0%
- Viable C4-2 cells at 25 μM (% of control) [4]: 42 % of control

SMILES: COc1ccc(Br)c(C(=O)N2CCN(S(=O)(=O)c3cccs3)CC2)c1 [Example 21, 1N-[(2-bromo-5-methoxybenzoyl)]-4N-[(2-thiophene)sulfonyl]piperazine]
- % Inhibition of proliferation at 25 μM (BrDU) on C4-2 [3]: 58.3 ± 19.9%

From patent US20130012709A1, “NOVEL INHIBITORS OF STEAROYL-CoA-DESATURASE-1 AND THEIR USES” (CENTRE NATIONAL DE LA RECHERCHE SCIENTIFIQUE, priority 2009, published 2013)
